The target of assay [1] is Rho-associated protein kinase 1 (Homo sapiens) (UniProt Q13464). The experiment in a line: Selectivity interaction (Ambit KINOMEscan and KiNATiv profiling in Jurkat cells) EUB0000090b ROCK1. The class given is cell-based. The following applies: at 1 µM.
Assay [2] addresses Non-receptor tyrosine-protein kinase TYK2 (Homo sapiens, UniProt P29597). Briefly: Selectivity interaction (Ambit KINOMEscan and KiNATiv profiling in Jurkat cells) EUB0000090b TYK2. In kind it is cell-based. As to conditions: at 1 µM.
For assay [3], the target named is T1, Phosphatidylinositol 5-phosphate 4-kinase type-2 beta (Homo sapiens) (UniProt P78356).
T1 sequence (whole entry): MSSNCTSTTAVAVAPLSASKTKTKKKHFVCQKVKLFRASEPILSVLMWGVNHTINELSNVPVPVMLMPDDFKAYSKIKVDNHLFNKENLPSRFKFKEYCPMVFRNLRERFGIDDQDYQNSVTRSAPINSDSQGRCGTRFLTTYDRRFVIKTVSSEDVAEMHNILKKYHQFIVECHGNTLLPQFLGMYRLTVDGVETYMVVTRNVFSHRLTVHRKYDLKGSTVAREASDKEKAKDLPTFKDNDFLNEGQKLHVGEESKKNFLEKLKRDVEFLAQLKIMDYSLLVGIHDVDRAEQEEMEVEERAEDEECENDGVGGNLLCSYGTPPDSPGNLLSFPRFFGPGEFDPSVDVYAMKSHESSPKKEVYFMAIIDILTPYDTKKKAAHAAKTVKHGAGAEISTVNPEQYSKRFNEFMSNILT
As to conditions: at 10 µM.

The target in assay [4] is T2, Dual specificity mitogen-activated protein kinase kinase 6 (Homo sapiens) (UniProt P52564).
T2 sequence (whole entry): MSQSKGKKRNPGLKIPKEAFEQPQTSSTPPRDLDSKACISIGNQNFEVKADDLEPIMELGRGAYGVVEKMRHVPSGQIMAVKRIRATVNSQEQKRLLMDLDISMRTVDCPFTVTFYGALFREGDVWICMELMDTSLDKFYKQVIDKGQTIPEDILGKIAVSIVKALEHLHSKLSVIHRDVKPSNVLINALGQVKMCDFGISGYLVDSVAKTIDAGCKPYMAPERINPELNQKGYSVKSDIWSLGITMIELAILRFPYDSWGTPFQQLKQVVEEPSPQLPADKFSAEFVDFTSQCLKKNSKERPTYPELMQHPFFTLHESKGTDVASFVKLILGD
As to conditions: at 10 µM.

Assay [5] deals with Serine/threonine-protein kinase 33 (Homo sapiens) (UniProt Q9BYT3). The experiment in a line: Selectivity interaction (KinomeScan (DiscoverX)) EUB0001049a STK33. As to conditions: at 1 µM.
Chain of Serine/threonine-protein kinase 33 (Homo sapiens) (Q9BYT3 whole entry, looked up): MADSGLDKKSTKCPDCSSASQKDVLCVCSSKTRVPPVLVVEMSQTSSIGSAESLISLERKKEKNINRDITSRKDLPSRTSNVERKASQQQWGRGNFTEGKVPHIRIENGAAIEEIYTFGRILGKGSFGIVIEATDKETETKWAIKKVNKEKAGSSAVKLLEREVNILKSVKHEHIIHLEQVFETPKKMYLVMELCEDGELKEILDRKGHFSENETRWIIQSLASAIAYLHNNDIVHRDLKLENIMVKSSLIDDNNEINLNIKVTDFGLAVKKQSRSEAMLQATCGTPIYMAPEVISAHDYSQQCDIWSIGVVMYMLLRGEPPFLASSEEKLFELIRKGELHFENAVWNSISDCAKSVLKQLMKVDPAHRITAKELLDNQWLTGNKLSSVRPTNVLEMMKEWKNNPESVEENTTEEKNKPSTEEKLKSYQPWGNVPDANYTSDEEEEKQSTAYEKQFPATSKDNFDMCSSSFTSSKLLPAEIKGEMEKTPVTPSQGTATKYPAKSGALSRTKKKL
Assay [6] concerns the target Serine/threonine-protein kinase PAK 3 (Homo sapiens) (UniProt O75914). The experiment in a line: Selectivity interaction (KinomeScan (DiscoverX)) EUB0000695a PAK3. The following applies: at 100 nM.
Assay [7] has as its target Death-associated protein kinase 1 (Homo sapiens, UniProt P53355). Briefly: Selectivity interaction (KinomeScan (DiscoverX)) EUB0000666a DAPK1. As to conditions: at 10 µM.
For assay [8], the target named is Casein kinase II subunit alpha' (Homo sapiens) (UniProt P19784). The experiment in a line: Selectivity interaction (Kinase panel (Z-LYTE Assay)) EUB0001632a CSNK2A2. As to conditions: at 10 µM.
In assay [9] the target is Serine/threonine-protein kinase B-raf (Homo sapiens) (UniProt P15056). Briefly: Selectivity interaction (SelectScreen profiling (Invitrogen)) EUB0000607a BRAF. The following applies: at 2 µM.
Chain of Serine/threonine-protein kinase B-raf (Homo sapiens) (P15056 whole entry): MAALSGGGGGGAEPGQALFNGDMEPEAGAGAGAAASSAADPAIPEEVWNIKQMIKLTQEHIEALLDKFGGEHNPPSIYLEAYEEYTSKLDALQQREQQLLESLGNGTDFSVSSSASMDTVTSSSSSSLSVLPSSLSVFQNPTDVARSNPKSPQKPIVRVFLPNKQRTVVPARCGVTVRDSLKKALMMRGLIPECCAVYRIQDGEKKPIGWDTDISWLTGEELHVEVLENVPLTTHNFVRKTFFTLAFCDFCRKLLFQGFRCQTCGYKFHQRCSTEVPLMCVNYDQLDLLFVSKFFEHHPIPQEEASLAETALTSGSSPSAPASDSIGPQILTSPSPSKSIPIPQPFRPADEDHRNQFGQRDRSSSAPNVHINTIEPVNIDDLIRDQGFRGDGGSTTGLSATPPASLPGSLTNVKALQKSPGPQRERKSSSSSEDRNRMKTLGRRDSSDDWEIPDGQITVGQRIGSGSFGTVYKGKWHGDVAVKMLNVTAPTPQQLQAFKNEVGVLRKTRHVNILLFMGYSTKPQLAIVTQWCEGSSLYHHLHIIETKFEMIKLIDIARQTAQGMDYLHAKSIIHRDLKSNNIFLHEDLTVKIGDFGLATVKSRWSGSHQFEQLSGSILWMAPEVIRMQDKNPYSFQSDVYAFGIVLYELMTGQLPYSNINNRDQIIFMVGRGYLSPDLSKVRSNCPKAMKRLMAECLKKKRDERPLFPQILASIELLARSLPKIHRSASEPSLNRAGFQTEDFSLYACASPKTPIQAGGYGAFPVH
Assay [10] addresses Calcium/calmodulin-dependent protein kinase kinase 1 (Homo sapiens) (UniProt Q8N5S9). Briefly: Selectivity interaction (KinomeScan (DiscoverX)) EUB0000607a CAMKK1. As to conditions: at 10 µM.
Assay [11] addresses Mitogen-activated protein kinase 3 (Homo sapiens, UniProt P27361). Briefly: Selectivity interaction (Kinase panel (Invitrogen)) EUB0000639a MAPK3. As to conditions: at 200 nM.
Assay [12] addresses T3, Inhibitor of nuclear factor kappa-B kinase subunit epsilon (Homo sapiens) (UniProt Q14164).
T3 sequence (whole entry): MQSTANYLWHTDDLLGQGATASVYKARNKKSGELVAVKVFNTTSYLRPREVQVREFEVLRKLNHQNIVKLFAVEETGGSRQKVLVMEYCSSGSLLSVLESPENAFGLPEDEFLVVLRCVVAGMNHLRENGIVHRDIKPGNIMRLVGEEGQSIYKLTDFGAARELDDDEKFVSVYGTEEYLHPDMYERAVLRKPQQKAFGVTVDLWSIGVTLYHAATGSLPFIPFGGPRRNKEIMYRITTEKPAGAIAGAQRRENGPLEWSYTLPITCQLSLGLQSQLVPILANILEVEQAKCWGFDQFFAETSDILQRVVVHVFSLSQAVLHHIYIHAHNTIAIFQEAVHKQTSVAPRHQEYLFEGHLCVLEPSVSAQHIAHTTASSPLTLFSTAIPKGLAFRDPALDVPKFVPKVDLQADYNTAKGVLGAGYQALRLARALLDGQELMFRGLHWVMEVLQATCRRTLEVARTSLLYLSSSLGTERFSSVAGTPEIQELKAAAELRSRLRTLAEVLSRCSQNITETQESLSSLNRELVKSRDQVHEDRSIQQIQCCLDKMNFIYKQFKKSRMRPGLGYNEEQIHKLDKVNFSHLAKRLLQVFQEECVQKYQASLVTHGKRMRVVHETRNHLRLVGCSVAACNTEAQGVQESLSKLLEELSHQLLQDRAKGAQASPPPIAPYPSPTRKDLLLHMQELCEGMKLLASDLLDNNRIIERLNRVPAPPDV
The experiment in a line: Selectivity interaction (ActivX KiNativ screen (kinase selectivity in THP-1 cell lysates)) EUB0000639a IKBKE. The class given is subcellular. The following applies: lysate, at 0.04 µM.

The target of assay [13] is Cyclin-dependent kinase 14 (Homo sapiens) (UniProt O94921). The experiment in a line: Selectivity interaction (KinomeScan (DiscoverX)) EUB0000595a CDK14. The following applies: at 10 µM.
Chain of Cyclin-dependent kinase 14 (Homo sapiens) (O94921 whole entry): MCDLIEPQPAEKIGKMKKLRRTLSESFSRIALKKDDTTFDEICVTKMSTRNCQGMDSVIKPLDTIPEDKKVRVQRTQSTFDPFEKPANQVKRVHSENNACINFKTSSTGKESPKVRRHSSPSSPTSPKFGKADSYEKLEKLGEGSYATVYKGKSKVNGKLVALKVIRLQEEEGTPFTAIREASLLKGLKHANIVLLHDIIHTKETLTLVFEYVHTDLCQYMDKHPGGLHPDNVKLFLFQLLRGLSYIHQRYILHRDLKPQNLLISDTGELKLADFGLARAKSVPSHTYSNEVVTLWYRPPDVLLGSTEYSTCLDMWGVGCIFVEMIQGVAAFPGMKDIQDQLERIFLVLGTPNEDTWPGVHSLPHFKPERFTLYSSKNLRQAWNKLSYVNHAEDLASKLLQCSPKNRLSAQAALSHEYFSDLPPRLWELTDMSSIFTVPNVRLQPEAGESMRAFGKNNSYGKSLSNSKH
Assay [14] has as its target Serine/threonine-protein kinase NIM1 (Homo sapiens, UniProt Q8IY84). Briefly: Selectivity interaction (KinomeScan (DiscoverX)) EUB0001619a NIM1K. As to conditions: at 1 µM.
The target in assay [15] is Serine/threonine-protein kinase MARK2 (Homo sapiens) (UniProt Q7KZI7). Briefly: Selectivity interaction (Kinase panel (KiNativ target engagement assay in Jurkat cells)) EUB0001635a MARK2. In kind it is cell-based. The following applies: Selectivity number of off-targets 0.0, Selectivity number of targets 233.0, Source Knowledge https://www.sciencedirect.com/science/article/pii/S2451945619300674?via%3Dihub, at 1 µM.
Chain of Serine/threonine-protein kinase MARK2 (Homo sapiens) (Q7KZI7 whole entry): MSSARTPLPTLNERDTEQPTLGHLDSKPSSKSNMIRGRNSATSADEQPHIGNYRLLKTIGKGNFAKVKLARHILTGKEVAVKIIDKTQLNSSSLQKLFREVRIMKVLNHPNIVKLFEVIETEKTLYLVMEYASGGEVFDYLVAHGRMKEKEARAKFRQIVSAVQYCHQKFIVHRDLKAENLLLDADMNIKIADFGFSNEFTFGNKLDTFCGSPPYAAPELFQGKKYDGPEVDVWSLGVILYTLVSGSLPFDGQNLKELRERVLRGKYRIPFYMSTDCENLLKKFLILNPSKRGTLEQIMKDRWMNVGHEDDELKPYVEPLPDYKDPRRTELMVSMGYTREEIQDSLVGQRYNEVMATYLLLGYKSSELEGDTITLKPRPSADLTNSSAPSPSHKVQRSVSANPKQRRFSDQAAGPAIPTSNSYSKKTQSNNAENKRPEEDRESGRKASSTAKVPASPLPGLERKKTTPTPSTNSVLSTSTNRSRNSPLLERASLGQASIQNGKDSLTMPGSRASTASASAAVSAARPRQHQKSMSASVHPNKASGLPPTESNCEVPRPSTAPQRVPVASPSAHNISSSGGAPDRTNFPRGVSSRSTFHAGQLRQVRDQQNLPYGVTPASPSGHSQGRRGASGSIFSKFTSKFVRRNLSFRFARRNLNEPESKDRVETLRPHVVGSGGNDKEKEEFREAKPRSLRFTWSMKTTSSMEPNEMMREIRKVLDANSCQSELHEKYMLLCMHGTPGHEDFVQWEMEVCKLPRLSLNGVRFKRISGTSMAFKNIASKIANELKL

Assay [16] addresses Vascular endothelial growth factor receptor 2 (Homo sapiens, UniProt P35968). The experiment in a line: Selectivity interaction (KinomeScan (DiscoverX)) EUB0000618a KDR. As to conditions: at 10 µM.

SMILES strings stand for the structures.

Chain of Calcium/calmodulin-dependent protein kinase kinase 1 (Homo sapiens) (Q8N5S9 whole entry, looked up): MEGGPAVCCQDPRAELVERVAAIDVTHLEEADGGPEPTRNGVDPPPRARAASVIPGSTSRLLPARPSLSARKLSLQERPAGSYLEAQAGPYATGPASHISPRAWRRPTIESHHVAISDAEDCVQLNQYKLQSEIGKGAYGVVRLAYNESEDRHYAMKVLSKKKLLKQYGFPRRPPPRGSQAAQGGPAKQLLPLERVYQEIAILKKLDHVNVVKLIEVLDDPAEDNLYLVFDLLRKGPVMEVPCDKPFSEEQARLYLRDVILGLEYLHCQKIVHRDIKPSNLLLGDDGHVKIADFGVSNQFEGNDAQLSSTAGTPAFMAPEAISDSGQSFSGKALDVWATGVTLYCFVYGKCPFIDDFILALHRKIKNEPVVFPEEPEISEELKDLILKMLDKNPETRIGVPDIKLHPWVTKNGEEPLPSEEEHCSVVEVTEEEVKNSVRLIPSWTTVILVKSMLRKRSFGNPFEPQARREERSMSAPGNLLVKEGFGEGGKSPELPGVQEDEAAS
Chain of Rho-associated protein kinase 1 (Homo sapiens) (Q13464 2-1354 limits assumed): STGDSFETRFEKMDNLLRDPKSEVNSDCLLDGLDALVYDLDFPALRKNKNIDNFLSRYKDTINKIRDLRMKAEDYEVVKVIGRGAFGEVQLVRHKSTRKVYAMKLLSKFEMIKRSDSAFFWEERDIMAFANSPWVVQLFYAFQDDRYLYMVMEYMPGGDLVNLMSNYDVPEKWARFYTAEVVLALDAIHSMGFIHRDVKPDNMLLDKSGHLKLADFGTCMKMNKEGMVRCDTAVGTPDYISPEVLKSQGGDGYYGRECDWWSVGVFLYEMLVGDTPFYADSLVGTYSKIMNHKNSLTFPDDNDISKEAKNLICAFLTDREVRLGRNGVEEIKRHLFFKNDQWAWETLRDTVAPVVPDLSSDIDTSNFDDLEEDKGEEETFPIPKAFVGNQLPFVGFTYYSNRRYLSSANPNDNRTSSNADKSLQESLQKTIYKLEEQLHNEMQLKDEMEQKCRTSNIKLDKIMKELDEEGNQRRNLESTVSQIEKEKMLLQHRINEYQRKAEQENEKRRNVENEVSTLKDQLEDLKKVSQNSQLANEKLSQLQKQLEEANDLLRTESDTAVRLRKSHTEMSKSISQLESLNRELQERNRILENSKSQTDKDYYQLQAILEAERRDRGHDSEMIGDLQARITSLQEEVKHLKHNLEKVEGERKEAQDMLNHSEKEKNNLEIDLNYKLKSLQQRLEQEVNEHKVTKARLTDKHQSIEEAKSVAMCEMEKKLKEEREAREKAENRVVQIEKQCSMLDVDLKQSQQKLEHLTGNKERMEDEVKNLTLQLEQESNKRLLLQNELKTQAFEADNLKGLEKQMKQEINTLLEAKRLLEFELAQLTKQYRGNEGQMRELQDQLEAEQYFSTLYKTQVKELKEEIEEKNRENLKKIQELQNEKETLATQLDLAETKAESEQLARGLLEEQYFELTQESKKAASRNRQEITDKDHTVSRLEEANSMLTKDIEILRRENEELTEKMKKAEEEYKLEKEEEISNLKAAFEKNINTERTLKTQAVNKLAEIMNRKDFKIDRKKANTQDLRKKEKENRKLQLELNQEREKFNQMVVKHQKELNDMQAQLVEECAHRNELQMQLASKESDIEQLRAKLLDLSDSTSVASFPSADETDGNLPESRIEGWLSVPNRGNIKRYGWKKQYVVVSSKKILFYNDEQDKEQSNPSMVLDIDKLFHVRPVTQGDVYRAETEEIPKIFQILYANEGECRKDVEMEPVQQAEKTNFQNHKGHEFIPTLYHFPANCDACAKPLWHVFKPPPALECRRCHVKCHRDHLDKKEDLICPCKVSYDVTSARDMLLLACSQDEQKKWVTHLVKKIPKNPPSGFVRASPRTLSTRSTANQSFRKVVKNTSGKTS
Chain of Serine/threonine-protein kinase PAK 3 (Homo sapiens) (O75914 whole entry, looked up): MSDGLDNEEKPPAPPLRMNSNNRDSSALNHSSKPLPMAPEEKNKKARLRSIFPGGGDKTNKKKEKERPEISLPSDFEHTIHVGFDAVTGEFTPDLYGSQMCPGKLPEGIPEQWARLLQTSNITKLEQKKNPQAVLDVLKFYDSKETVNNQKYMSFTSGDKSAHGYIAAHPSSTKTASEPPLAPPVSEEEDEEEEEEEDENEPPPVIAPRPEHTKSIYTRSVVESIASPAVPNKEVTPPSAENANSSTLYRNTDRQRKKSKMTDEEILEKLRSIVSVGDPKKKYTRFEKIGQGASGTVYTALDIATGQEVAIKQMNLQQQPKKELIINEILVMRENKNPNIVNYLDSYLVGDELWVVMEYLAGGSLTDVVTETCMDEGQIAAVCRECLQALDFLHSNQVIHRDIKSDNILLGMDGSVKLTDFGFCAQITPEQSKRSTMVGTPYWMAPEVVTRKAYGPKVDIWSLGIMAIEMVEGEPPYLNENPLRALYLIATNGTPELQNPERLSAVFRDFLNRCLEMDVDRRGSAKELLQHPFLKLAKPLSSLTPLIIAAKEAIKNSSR

Turning to `CN(C)C/C=C/C(=O)Nc1ccc(C(=O)N2CCCC(Nc3ncc(Cl)c(-c4c[nH]c5ccccc45)n3)C2)cc1` (stereo unspecified), the % of control in [1] was 90%; in [2] it was 99%.

`CCN(CC)CCCCNc1ncc2cc(-c3cc(OC)cc(OC)c3)c(NC(=O)NC(C)(C)C)nc2n1`: the % of control in [3] and in assay [4] was 100% in each case.

In turn, `COc1cc(Nc2nc(C)cc(-c3cnn4nc(OC)ccc34)n2)cc(C(F)(F)F)c1` gave a % of control in assay [5] of 94%.

In the case of `Cc1cc(F)c(C(=O)Nc2cccc(-c3nncn3C(C)C)n2)cc1-n1cnc(C2CC2)c1`, the % of control in assay [6] came out at 89%.

In turn, `O=C(NOC[C@H](O)CO)c1ccc(F)c(F)c1Nc1ccc(I)cc1F` showed a % of control in [7] of 100%.

With `Cn1cc(-n2cnc3c(NCc4nc5cc(Cl)c(Cl)cc5[nH]4)nc(N4CCOCC4)nc32)cn1`, the % of control in assay [8] is 1.8%.

As for `CNC(=O)Nc1ccc(-c2nc(N3CC4CCC(C3)O4)c3cnn(C4CCC5(CC4)OCCO5)c3n2)cc1`, in assay [9], the % of inhibition stood at 6%. Moreover, the % of control in [10] is 100%.

On to `CC[C@@H]1[C@H](F)C(=O)N[C@@H]1COc1nccc2cc(C(N)=O)c(OC)cc12` [ZIMLOVISERTIB], for which the figures for the % of inhibition in [11] and in assay [12] were 4.09% and -22.2%, respectively.

In assay [13], `COCC(=O)NC/C=C/c1ccc2ncnc(Nc3ccc(Oc4ccc(C)nc4)c(C)c3)c2c1` [CP-724714] had a % of control of 100%.

As for `N#Cc1cccc(-c2c[nH]c3ncnc(N4CCOCC4)c23)c1`, in [14], the % of control is 80%.

In assay [15], `C=CC(=O)Nc1ccc(C(=O)Nc2[nH]nc3c2CN(C(=O)N[C@H](CN(C)C)c2ccccc2)C3(C)C)cc1` came in with a % of engagement of 6.7%.

In assay [16], `O[C@H]1CC[C@H](Nc2ncc3nc(Nc4c(F)cc(F)cc4F)n([C@H]4CCOC4)c3n2)CC1` returned a % of control of 100%.
